Experiments:
[1] = target: T1, Akt1 (Homo sapiens, UniProt P31749); test: Akt activation assay (PDK1-mediated activation, LANCE Ultra crosstide TR-FRET), Akt1; format: biochemical; details: read-out: Biological Assay 1 IC50 (nM) Akt1
T1 construct: unspecified tag, removed (detagged) (cleaved yes); purchased SignalChem and Proteros (Akt1); Merck Millipore (PDK1) 14-452 (PDK1); none given for Akt1
How it was run: (§1)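 This TR-FRET readout (Eu-anti-phospho-crosstide antibody, 665/615 nm) measured PDK1-driven activation of Akt. Compound was first preincubated with each Akt isoform: Akt1 5 nM; Akt2 15 nM SignalChem or 5 nM Proteros; Akt3 3 nM SignalChem or 5 nM Proteros. Reactions then ran 30 min with 5 nM PDK1, lipid vesicles containing 0.55 µM PtdIns(3,4,5)P3, 100 µM ATP and 100 nM crosstide at pH 7.5, and IC50 came from a 4-parameter equation.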

[2] = target: T2, Akt2 (Homo sapiens, UniProt P31751); test: Akt activation assay (PDK1-mediated activation, LANCE Ultra crosstide TR-FRET), Akt2; format: biochemical; details: read-out: Biological Assay 1 IC50 (nM) Akt2
T2 construct: unspecified tag, removed (detagged) (cleaved yes); purchased SignalChem and Proteros (Akt2); Merck Millipore (PDK1) 14-452 (PDK1); none given for Akt2
T2 sequence (P31751 whole entry): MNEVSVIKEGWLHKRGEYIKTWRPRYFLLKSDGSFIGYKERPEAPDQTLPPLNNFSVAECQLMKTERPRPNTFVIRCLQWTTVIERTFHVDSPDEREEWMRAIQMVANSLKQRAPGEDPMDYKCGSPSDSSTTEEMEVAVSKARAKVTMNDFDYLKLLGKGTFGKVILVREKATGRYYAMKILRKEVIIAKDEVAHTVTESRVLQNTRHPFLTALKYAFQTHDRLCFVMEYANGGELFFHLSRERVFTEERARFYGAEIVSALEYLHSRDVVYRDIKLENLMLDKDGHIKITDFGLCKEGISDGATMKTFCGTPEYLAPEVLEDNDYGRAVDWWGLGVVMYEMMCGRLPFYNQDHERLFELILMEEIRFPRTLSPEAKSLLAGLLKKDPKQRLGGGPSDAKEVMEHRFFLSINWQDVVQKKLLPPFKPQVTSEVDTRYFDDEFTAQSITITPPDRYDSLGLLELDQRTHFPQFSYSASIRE
How it was run: as §1

[3] = target: T3, Akt3 (Homo sapiens, UniProt Q9Y243); test: Akt activation assay (PDK1-mediated activation, LANCE Ultra crosstide TR-FRET), Akt3; format: biochemical; details: read-out: Biological Assay 1 IC50 (nM) Akt3
T3 construct: unspecified tag, removed (detagged) (cleaved yes); purchased SignalChem and Proteros (Akt3); Merck Millipore (PDK1) 14-452 (PDK1); none given for Akt3
T3 sequence (Q9Y243 whole entry): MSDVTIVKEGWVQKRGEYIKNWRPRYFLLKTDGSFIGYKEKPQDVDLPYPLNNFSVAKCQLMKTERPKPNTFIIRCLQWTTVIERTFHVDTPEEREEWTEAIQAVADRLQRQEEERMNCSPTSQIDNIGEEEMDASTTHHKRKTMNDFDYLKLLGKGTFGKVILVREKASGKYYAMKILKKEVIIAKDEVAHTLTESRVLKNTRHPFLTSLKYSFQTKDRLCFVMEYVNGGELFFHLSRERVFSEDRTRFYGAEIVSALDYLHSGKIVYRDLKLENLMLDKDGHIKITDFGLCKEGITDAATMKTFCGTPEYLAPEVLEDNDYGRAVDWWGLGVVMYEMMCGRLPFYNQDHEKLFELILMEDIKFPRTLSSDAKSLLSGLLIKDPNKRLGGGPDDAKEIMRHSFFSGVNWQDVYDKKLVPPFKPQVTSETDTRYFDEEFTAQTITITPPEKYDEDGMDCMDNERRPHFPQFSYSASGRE
How it was run: as §1

[4] = target: T4, p-Akt1 in LNCaP cells (Homo sapiens, UniProt P31749); test: Phospho-Akt cellular SureFire assay, p-Akt1 in LNCaP cells; format: cell-based; details: read-out: Biological Assay 2 IC50 (nM) Akt1 LNCaP
T4 construct: SureFire assays to detect cellular p-Akt1, p-Akt2 and p-Akt3 levels in WM115 cells (Akt2/3) and LNCaP cells (Akt1); endogenous in cells; host or cells: LNCaP (ECACC 89110211)
T4 sequence (P31749 whole entry): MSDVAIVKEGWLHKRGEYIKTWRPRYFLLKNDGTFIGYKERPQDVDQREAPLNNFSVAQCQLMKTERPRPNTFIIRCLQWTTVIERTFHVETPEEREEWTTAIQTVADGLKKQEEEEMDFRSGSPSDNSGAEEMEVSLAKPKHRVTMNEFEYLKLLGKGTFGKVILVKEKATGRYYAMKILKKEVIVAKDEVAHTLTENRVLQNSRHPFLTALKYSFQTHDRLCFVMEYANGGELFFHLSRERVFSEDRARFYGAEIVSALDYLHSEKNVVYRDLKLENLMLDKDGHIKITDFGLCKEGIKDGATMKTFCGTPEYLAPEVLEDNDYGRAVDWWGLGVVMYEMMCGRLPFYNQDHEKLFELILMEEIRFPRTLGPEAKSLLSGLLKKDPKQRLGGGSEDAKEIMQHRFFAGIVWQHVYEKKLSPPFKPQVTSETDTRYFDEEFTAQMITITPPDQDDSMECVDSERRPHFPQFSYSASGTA
How it was run: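 Phospho-Thr308 Akt1 detected by AlphaScreen SureFire proximity beads in LNCaP lysates after 15 min compound treatment at 37 °C in 0.1% FBS medium, unstimulated, 0.3% DMSO. Cells plated at 5×10^4/well overnight; IC50 from a 4-parameter equation.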

[5] = target: T5, p-Akt2 in WM115 cells (Homo sapiens, UniProt P31751); test: Phospho-Akt cellular SureFire assay, p-Akt2 in WM115 cells; format: cell-based; details: insulin stimulated, read-out: Biological Assay 2 IC50 (nM) Akt2 WM115
T5 construct: SureFire assays to detect cellular p-Akt1, p-Akt2 and p-Akt3 levels in WM115 cells (Akt2/3) and LNCaP cells (Akt1); endogenous in cells; host or cells: WM115 (ECACC 91061232), insulin-stimulated
T5 sequence (P31751 whole entry): as the sequence (P31751 whole entry) above
How it was run: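 Readout is a bead-proximity SureFire assay pairing a pThr308 Akt antibody with a total Akt2 antibody, lysate and beads incubated 2 h plus 2 h at room temperature in the dark. Before lysis, serum-starved WM115 cells received 100 nM insulin (10 min), then test compound (15 min, 0.3% DMSO); IC50 by 4-parameter equation.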

[6] = target: T6, p-Akt3 in WM115 cells (Homo sapiens, UniProt Q9Y243); test: Phospho-Akt cellular SureFire assay, p-Akt3 in WM115 cells; format: cell-based; details: insulin stimulated, read-out: Biological Assay 2 IC50 (nM) Akt3 WM115
T6 construct: SureFire assays to detect cellular p-Akt1, p-Akt2 and p-Akt3 levels in WM115 cells (Akt2/3) and LNCaP cells (Akt1); endogenous in cells; host or cells: WM115 (ECACC 91061232), insulin-stimulated
T6 sequence (Q9Y243 whole entry): as the sequence (Q9Y243 whole entry) above
How it was run: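 pThr308-Akt3 in lysates was quantified by bead-proximity SureFire detection, pairing a phospho-specific antibody with a total Akt3 antibody. Before lysis, WM115 cells in 0.1% FBS medium were treated for 15 min at 37 °C with compound (final DMSO 0.3%), following a 10 min stimulation with 100 nM insulin. IC50 was obtained by 4-parameter fitting.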

T1 sequence (P31749 whole entry): as the sequence (P31749 whole entry) above

IC50 [1] [nM] | IC50 [2] [nM] | IC50 [3] [nM] | IC50 [4] [nM] | IC50 [5] [nM] | IC50 [6] [nM] | SMILES
> 30000 | 1100 | 36 | > 30000 | > 28000 | 960 | COC(=O)N(C)[C@H]1CC[C@H](CC(=O)Nc2cc(-c3ccsc3)c(-c3ccc([C@]4(N)C[C@H](F)C4)cc3)nn2)CC1 [Example A70, Methyl (trans-4-(2-((6-(4-(trans-1-amino-3-fluorocyclobutyl)phenyl)-5-(thiophen-3-yl)pyridazin-3-yl)amino)-2-oxoethyl)cyclohexyl)(methyl)carbamate]
> 24000 | 290 | 42 | 12000 | 980 | 33 | CC(=O)N(CC(F)(F)F)[C@H]1CC[C@H](CC(=O)Nc2cc(-c3ccccc3)c(-c3ccc([C@]4(N)C[C@](C)(O)C4)cc3)cn2)CC1 [Example 117, N-(5-(4-(trans-1-amino-3-hydroxy-3-methylcyclobutyl)phenyl)-4-phenylpyridin-2-yl)-2-(trans-4-(N-(2,2,2-trifluoroethyl)acetamido)cyclohexyl)acetamide]
> 30000 | 3400 | 74 | > 20000 | 8800 | 270 | CC(C)C(=O)N(C)[C@H]1CC[C@H](CC(=O)Nc2cc(-c3ccccc3)c(-c3ccc(C(C)(C)N)cc3)nn2)CC1 [Example A85, N-(trans-4-(2-((6-(4-(2-aminopropan-2-yl)phenyl)-5-phenylpyridazin-3-yl)amino)-2-oxoethyl)cyclohexyl)-N-methylisobutyramide]
> 30000 | > 30000 | 1000 | > 30000 | > 30000 | 140 | CC(=O)N(C)[C@H]1CC[C@H](CC(=O)Nc2cc(-c3ccccn3)c(-c3ccc(C4(N)CCC4)cc3)cn2)CC1 [Example 76, N-(5′-(4-(1-aminocyclobutyl)phenyl)-[2,4′-bipyridin]-2′-yl)-2-(trans-4-(N-methylacetamido)cyclohexyl)acetamide]
> 30000 | 540 | 22 | > 17000 | 12000 | 66 | CC(=O)N(C)[C@H]1CC[C@H](CC(=O)Nc2cc(-c3ccccc3)c(-c3ccc(C4(N)CC(F)(F)C4)cc3)nn2)CC1 [Example 73, N-(6-(4-(1-amino-3,3-difluorocyclobutyl)phenyl)-5-phenylpyridazin-3-yl)-2-(trans-4-(N-methylacetamido)cyclohexyl)acetamide]
> 13000 | 210 | 8 | 4000 | 1500 | 25 | CCN(C(C)=O)[C@H]1CC[C@H](CC(=O)Nc2cc(-c3ccccc3)c(-c3ccc([C@]4(N)C[C@](C)(O)C4)cc3)nn2)CC1 [Example 106, N-(6-(4-(trans-1-amino-3-hydroxy-3-methylcyclobutyl)phenyl)-5-phenylpyridazin-3-yl)-2-(trans-4-(N-ethylacetamido)cyclohexyl)acetamide]
3100 | 91 | 7 | 1800 | 460 | 14 | C[C@]1(O)C[C@@](N)(c2ccc(-c3cnc(NC(=O)C[C@H]4CC[C@H](N5CCCC5=O)CC4)cc3-c3ccccc3)cc2)C1 [Example A82, N-(5-(4-(trans-1-amino-3-hydroxy-3-methylcyclobutyl)phenyl)-4-phenylpyridin-2-yl)-2-(trans-4-(2-oxopyrrolidin-1-yl)cyclohexyl)acetamide]
2100 | 86 | 4 | 820 | 250 | 7 | CCC(=O)N(C)[C@H]1CC[C@H](CC(=O)Nc2cc(-c3ccccc3)c(-c3ccc([C@]4(N)C[C@](C)(O)C4)cc3)nn2)CC1 [Example 83, N-(trans-4-(2-((6-(4-(trans-1-amino-3-hydroxy-3-methylcyclobutyl)phenyl)-5-phenylpyridazin-3-yl)amino)-2-oxoethyl)cyclohexyl)-N-methylpropionamide]
> 30000 | > 30000 | 1100 | > 30000 | > 30000 | 1700 | CC(=O)N(C)[C@H]1CC[C@H](CC(=O)Nc2cnc(-c3ccc(C(C)(C)N)nc3)c(-c3ccccc3)c2)CC1 [Example 43, N-(6′-(2-aminopropan-2-yl)-3-phenyl-[2,3′-bipyridin]-5-yl)-2-(trans-4-(N-methylacetamido)cyclohexyl)acetamide]
> 21000 | 880 | 36 | 10000 | 2400 | 27 | CC(=O)N(C)[C@H]1CC[C@H](CC(=O)Nc2cnc(-c3ccc(C4(N)CC(C)(O)C4)c(F)c3)c(-c3ccccc3)c2)CC1 (stereo partly drawn) [Example 124, N-(6-(4-(trans-1-amino-3-hydroxy-3-methylcyclobutyl)-3-fluorophenyl)-5-phenylpyridin-3-yl)-2-(trans-4-(N-methylacetamido)cyclohexyl)acetamide]
> 30000 | 1400 | 30 | > 30000 | 1400 | 85 | CC(=O)N(C)[C@H]1CC[C@H](CC(=O)Nc2cc(-c3ccsc3)c(-c3ccc(C4(N)CCC4)cc3)cn2)CC1 [Example A64, N-(5-(4-(1-aminocyclobutyl)phenyl)-4-(thiophen-3-yl)pyridin-2-yl)-2-(trans-4-(N-methylacetamido)cyclohexyl)acetamide]
1600 | 190 | 7 | 5300 | 600 | 8 | CC(=O)N(C)[C@H]1CC[C@H](CC(=O)Nc2cc(-c3ccccc3)c(-c3ccc([C@]4(N)C[C@](C)(O)C4)cc3)nn2)CC1 [Example 57, N-(6-(4-(trans-1-amino-3-hydroxy-3-methylcyclobutyl)phenyl)-5-phenylpyridazin-3-yl)-2-(trans-4-(N-methylacetamido)cyclohexyl)acetamide]
> 30000 | 5600 | 200 | > 30000 | > 30000 | 1000 | COC(=O)N(C)[C@H]1CC[C@H](CC(=O)Nc2cc(-c3ccccc3)c(-c3ccc(C4(N)CC4)c(F)c3)nn2)CC1 [Example A104, Methyl (trans-4-(2-((6-(4-(1-aminocyclopropyl)-3-fluorophenyl)-5-phenylpyridazin-3-yl)amino)-2-oxoethyl)cyclohexyl)(methyl)carbamate]
> 30000 | 2200 | 140 | > 30000 | > 3790 | 270 | NC1(c2ccc(-c3nnc(NC(=O)C[C@H]4CC[C@H](N5CCOC5=O)CC4)cc3-c3ccccc3)cc2F)CC1 [Example A50, N-(6-(4-(1-aminocyclopropyl)-3-fluorophenyl)-5-phenylpyridazin-3-yl)-2-(trans-4-(2-oxooxazolidin-3-yl)cyclohexyl)acetamide]
> 30000 | 5700 | 490 | > 28000 | 5800 | 150 | CN(C(=O)C1CC1)[C@H]1CC[C@H](CC(=O)Nc2cnc(-c3ccc(C(C)(C)N)cc3)c(-c3ccccc3)c2)CC1 [Example A29, N-(trans-4-(2-((6-(4-(2-aminopropan-2-yl)phenyl)-5-phenylpyridin-3-yl)amino)-2-oxoethyl)cyclohexyl)-N-methylcyclopropanecarboxamide]
2600 | 53 | 4 | 1900 | 320 | 5 | C[C@]1(O)C[C@@](N)(c2ccc(-c3nnc(NC(=O)C[C@H]4CC[C@H](N5CCCCC5=O)CC4)cc3-c3ccccc3)cc2)C1 [Example A98, N-(6-(4-(trans-1-amino-3-hydroxy-3-methylcyclobutyl)phenyl)-5-phenylpyridazin-3-yl)-2-(trans-4-(2-oxopiperidin-1-yl)cyclohexyl)acetamide]
